Read-outs that look alike come from different tables or passages of the source.
Columns and labels:
Assay in all cases: Efficacy screening assay
Type in all cases: cell-based
PBMC = details: Non-cancer, healthy donors, 72 h
Method: C. Western blots for acetylated α-Tubulin, total α-Tubulin, p21 and GAPDH (loading control).
Cells were treated with vehicle control (0.1 % DMSO), 1 µM or 3 µM resminostat for 24 hours. Grouped blots were composed from cropped parts of individual blots for each antibody. Original blots with exposures and indicated cropped areas can be found in the supplementary information.
D. Cell line screen determining the EC50s of resminostat in 74 cell lines representing 14 different ca ncer indications. In addition, peripheral blood mononuclear cells (PBMCs) from healthy donors were tested. Each dot represents an EC50. […]
labelled fluorogenic peptide substrates: fluorogenic peptide from p53 residues 379-382 (RHKK(Ac)AMC) for HDAC1, 2, 3, 6, 10, 11; fluorogenic HDAC Class IIa Substrate (Trifluoro acetyl Lysine, Ac-LGK(TFA)-AMC) for HDAC 4, 5, 7, 9; and fluorogenic peptide from p53 residues 379-382 (RHK(Ac)K(Ac)AMC) for HDAC8. […] In a second step, the deacetylated products were digested by the addition of developer for 1 h at 30°C to produce the fluorescent signal proportional to the amount of deacetylated substrates and the fluorescence was measured using an Envision plate reader at 355 nm (excitation) and 460 nm (emission). A kinetic measurement was performed for ~1 h with 5 min intervals and d ata from the final time point were analysed. […]

COLO205 = details: COLO205, colon
Method: (§1) labelled fluorogenic peptide substrates: fluorogenic peptide from p53 residues 379-382 (RHKK(Ac)AMC) for HDAC1, 2, 3, 6, 10, 11; fluorogenic HDAC Class IIa Substrate (Trifluoro acetyl Lysine, Ac-LGK(TFA)-AMC) for HDAC 4, 5, 7, 9; and fluorogenic peptide from p53 residues 379-382 (RHK(Ac)K(Ac)AMC) for HDAC8. 1 mg/mL BSA and DMSO was added to the assay buffer (50 mM Tris-HCl, pH 8.0; 137 mM NaCl; 2.7 mM KCl; 1 mM MgCl2) prior to use. In a two-step reaction, the substrate with the acetylated lysine side chain was incubated for with a sample containing HDAC activity to p roduce the deacetylated products: 1 h at 30°C for HDAC1, 2, 3 and 6; 30 min at RT for HDAC4, 5, 7 and 9; 2 h at 30°C for HDAC8, 10 and 11. In a second step, the deacetylated products were digested by the addition of developer for 1 h at 30°C to produce the fluorescent signal proportional to the amount of deacetylated substrates and the fluorescence was measured using an Envision plate reader at 355 nm (excitation) and 460 nm (emission). A kinetic measurement was performed for ~1 h with 5 min intervals and d ata from the final time point were analysed. IC50 values and curve fits were obtained using GraphPad Softwar e.
(§2) The experiment was performed by Oncolead GmbH & Co. KG (Karlsfeld , Germany), based on a standardized screening procedure . Cell lines were purchased directly from the ATCC, NCI and DSMZ cell line c ollections. Cells used for the study had undergone less than 20 passages. To ensure the absence of potential contamination and wrong assignment, all cell lines were tested using a whole genome assay (Agilent, USA). All cell lines were grown as recommended by the suppliers and with addition of 100 U/mL penicillin G and 100 µg/mL; streptomycin. Cell growth and treatments were performed in Nunclon D 96 -well plates (NUNC, Germany). The optimal seeding density for each cell line was determined to ensure exponential growth for the duration of the experiment. All cells growing without anti-cancer agents were sub-conﬂuent by the end of the treatment, as determined by visual inspection.
(§3) After an initial 24 h pre-growth period, the compounds were added. The vehicle concentration […]
(§4) was 0.1% DMSO. After incubation at 37°C for 72 h, the culture medium was aspirated, and the cells were precipitated by the addition of 10% trichloroacetic acid (Sigma-Aldrich, Missouri, US). After overnight incubation at 4°C, the plates were washed three times with deionized water. The precipitates were then stained with SRB (0.4% wt/v sulforhodamine B solution in 1% acetic acid, Sigma-Aldrich, Missouri, US). Afterwards, the plates were washed six times with 1% acetic acid to remove unbound stain. After drying the plates at room temperature, the bound SRB was solubilized with 10 mM Tris base and the optical density was measured at 520 nm using a Victor2 plate reader (Perkin Elmer, Germany). Blank OD values were subtracted from mean OD values for each concentration. The nonlinear curve ﬁtting and EC50 calculations were per formed using XLﬁt and algorithm “205” (ID Business […]
(§5) For cell-based and other in vitro assays, data are presented as data mean ± SD of at least […]
(§6) For the orthotopic mouse model, data are presented as mean + SEM. For statistical analysis, one-way ANOVA and multiple comparison (Dunnett) was performed for compound treatments compared to vehicle control. The adjusted p-values with 95% confidence interval were reported as significant. For comparison of EC50 values in Figure 1F, one-way ANOVA with multiple comparison testing (Tukey) was performed. Multiplicity adjusted p -values for the EC50 with sorafenib versus resminostat for each cell line and comparison between cell lines for sorafenib are presented (95% confidence interval for significance testing). For comparison of EC50 data in Figure 2B, one-way ANOVA with multiple comparison testing (Tukey) was performed. Multiplicity adjusted p-values with 95% confidence interval was applied. For the […]

TE671 = details: TE671, muscle
Method: as §1, §2, §3, §4, §5, §6

DU145 = details: DU145, prostate
Method: as §1, §2, §3, §4, §5, §6

SF295 = details: SF295, brain
Method: as §1, §2, §3, §4, §5, §6

U87MG = details: 72 h, brain
Method: as §1, §2, §3, §4, §5, §6

HEK293 = details: HEK293, kidney
Method: as §1, §2, §3, §4, §5, §6

CN(C)Cc1ccc(S(=O)(=O)n2ccc(/C=C/C(=O)NO)c2)cc1 [resminostat, Resminostat]
EC50 (PBMC; log of EC50, negative, read-out: log(EC50) (converted)): 8.71 µM | EC50 (PBMC; read-out: EC50): 8.68 µM | EC50 (COLO205; 72 h, read-out: EC50): 2.54 µM | EC50 (COLO205; Homo sapiens, COLO 205, 72 h, log of EC50, negative, read-out: log(EC50) (converted)): 2.57 µM | EC50 (COLO205; Homo sapiens, COLO 205, 72 h, read-out: EC50): 2.54 µM | EC50 (TE671; Homo sapiens, TE-671, 72 h, log of EC50, negative, read-out: log(EC50) (converted)): 1.35 µM | EC50 (TE671; Homo sapiens, TE-671, 72 h, read-out: EC50): 1.34 µM | EC50 (TE671; 72 h, read-out: EC50): 1.34 µM | EC50 (DU145; 72 h, read-out: EC50): 1.38 µM | EC50 (DU145; Homo sapiens, DU-145, 72 h, log of EC50, negative, read-out: log(EC50) (converted)): 1.38 µM | EC50 (DU145; Homo sapiens, DU-145, 72 h, read-out: EC50): 1.38 µM | EC50 (SF295; Homo sapiens, SF-295, 72 h, log of EC50, negative, read-out: log(EC50) (converted)): 2.51 µM | EC50 (SF295; Homo sapiens, SF-295, 72 h, read-out: EC50): 2.53 µM | EC50 (SF295; 72 h, read-out: EC50): 2.53 µM | EC50 (U87MG; Homo sapiens, U-87 MG, log of EC50, negative, read-out: log(EC50) (converted)): 5.5 µM | EC50 (U87MG; Homo sapiens, U-87 MG, read-out: EC50): 5.55 µM | EC50 (U87MG; read-out: EC50): 5.55 µM | EC50 (HEK293; 72 h, read-out: EC50): 4.76 µM | EC50 (HEK293; Homo sapiens, HEK293, 72 h, log of EC50, negative, read-out: log(EC50) (converted)): 4.79 µM | EC50 (HEK293; Homo sapiens, HEK293, 72 h, read-out: EC50): 4.76 µM
